One assay has as its target T1, HSP90a protein (Homo sapiens, UniProt P07900).
T1 construct: purchased BPS Bioscience 50298
Put plainly: HSP90α-binding fluorescent polarization (FP) assay, BODIPY-labeled RNK04010 probe. The conditions noted are these: FP competition with RNK04010 (BODIPY-labeled), 5 nM, 300 min at 25° C. Put shortly: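 Test compounds (2.5-fold serial dilution, 20 μM to 5.2 nM) competed with a fluorescent tracer for N-terminal HSP90a, with fluorescence polarization as the read-out. FITC-geldanamycin tracer was used at 5 nM final with 120 min incubation at 25° C; BODIPY-labeled RNK04010 was used at 5 nM final with 300 min incubation.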

Assay [1] concerns NCI-H23 human non-small cell lung cancer. The assay can be described thus: NCI-H23 CCK-8 proliferation assay. It is filed as cell-based. Conditions: NCI-H23 cells, 72 hr. The method, boiled down:
(§1)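 Percent inhibition derived from CCK-8 optical signal, normalised between DMSO-only cells (0%) and cell-free medium containing DMSO as background. Cells: MIA PaCa-2 carrying 2 KRAS(G12C) copies; NCI-H358, NCI-H23 carrying 1 copy apiece. Concentrations spanned 1.02 nM–20 μM in threefold increments.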
For orientation: Formazan colour is commonly taken as a measure of viable cells.

The target in another assay is KRAS(G12C) (Homo sapiens, UniProt P01116, G12C). The assay can be described thus: KRAS(G12C)/SOS1 homogeneous time-resolved fluorescence (HTRF) assay. On the set-up: purchased Cisbio 63ADK000CB16PEG. The conditions noted are these: absence of GTP, 4° C. for 3 hr, read-out: KRAS (G12C) binding. The method, boiled down: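 HTRF kit measuring compound-induced block of KRAS(G12C)-SOS1 interaction without GTP. Compounds tested as 3-fold serial dilutions down to 1.02 nM, incubated with reaction components 3 h at 4 °C in sealed plates before fluorescence read.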
Background: Time-resolved FRET reads energy transfer from a long-lived donor to a nearby acceptor.

The test system of assay [2] is NCI-H358 human non-small cell lung cancer. Put plainly: NCI-H358 CCK-8 proliferation assay. The assay is classed as cell-based. The conditions noted are these: NCI-H358 cells, 72 hr. Put shortly: as §1
The subject of assay [3] is MIA PaCa-2 human pancreatic carcinoma. The assay can be described thus: MIA PaCa-2 CCK-8 proliferation assay. It is filed as cell-based. Conditions: Homo sapiens, MIA PaCa-2, 72 h, MIA PaCa-2 cells. Put shortly:
as §1

pEC50, pIC50: −log10 of the molar value.

Among the data in patent US20230391772A1, “METHODS AND COMPOSITIONS FOR TARGETED PROTEIN DEGRADATION” (Ranok Therapeutics (Hangzhou) Co. Ltd., priority 2020, published 2023) are IC50 and EC50 values, retold here.

Sequence of KRAS(G12C) (P01116 1-188 isoform P01116-2 G12C): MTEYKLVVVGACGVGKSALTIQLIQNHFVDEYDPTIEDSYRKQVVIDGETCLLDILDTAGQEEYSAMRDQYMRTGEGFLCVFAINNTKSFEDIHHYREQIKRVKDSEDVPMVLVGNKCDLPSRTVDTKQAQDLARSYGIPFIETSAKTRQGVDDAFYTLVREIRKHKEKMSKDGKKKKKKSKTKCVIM

As usually defined, the pEC50 is the negative decadic logarithm of the EC50, by convention in mol/L. A high value points to a small EC50. As to `C=CC(=O)N1CCN(c2nc(NCCC(=O)N3CCC(CN4CCN(Cc5ccc(-n6c(C(=O)NCC(F)(F)F)nnc6-c6cc(CC)c(O)cc6O)cc5)CC4)CC3)nc3c2CCN(c2cc(O)cc4ccccc24)C3)CC1` [Compound 17, 4-(4-((4-((1-(3-((4-(4-acryloylpiperazin-1-yl)-7-(3-hydroxynaphthalen-1-yl)-5,6,7,8-tetrahydropyrido[3,4-d]pyrimidin-2-yl)amino)propanoyl)piperidin-4-yl)methyl)piperazin-1-yl)methyl)phenyl)-5-(5-ethyl-2,4-dihydroxyphenyl)-N-(2,2,2-trifluoroethyl)-4H-1,2,4-triazole-3-carboxamide, trifluoroacetic acid], the pIC50 at HSP90a protein was 6.00 to 7.00; on KRAS(G12C), less than 6.00. Also, the pEC50 in assay [1] and in assay [2] was 6.00 to 7.00 in each case.
As for `C=CC(=O)N1CCN(c2nc(NCCC(=O)NCC3CCC(C(=O)N4CCN(Cc5ccc(-n6c(O)nnc6-c6cc(CC)c(O)cc6O)cc5)CC4)CC3)nc3c2CCN(c2cc(O)cc4ccccc24)C3)CC1` (stereo not drawn) [Compound 23, 3-((4-(4-acryloylpiperazin-1-yl)-7-(3-hydroxynaphthalen-1-yl)-5,6,7,8-tetrahydropyrido[3,4-d]pyrimidin-2-yl)amino)-N-((4-(4-(4-(3-(5-ethyl-2,4-dihydroxyphenyl)-5-hydroxy-4H-1,2,4-triazol-4-yl)benzyl)piperazine-1-carbonyl)cyclohexyl)methyl)propanamide, trifluoroacetic acid], the results for the pIC50 on HSP90a protein and at KRAS(G12C) were 6.00 to 7.00 and less than 6.00, respectively. Further, the pEC50 in assay [1] and in assay [2] was 6.00 to 7.00 throughout.
In the case of `C=CC(=O)N1CCN(c2nc(NCCC(=O)NCc3ccc(CN4CCC(Cc5ccc(-n6c(C(=O)NCC(F)(F)F)nnc6-c6cc(C(C)C)c(O)cc6O)cc5)CC4)cc3)nc3c2CCN(c2cc(O)cc4ccccc24)C3)CC1` [Compound 25, 4-(4-((1-(4-((3-((4-(4-acryloylpiperazin-1-yl)-7-(3-hydroxynaphthalen-1-yl)-5,6,7,8-tetrahydropyrido[3,4-d]pyrimidin-2-yl)amino)propanamido)methyl)benzyl)piperidin-4-yl)methyl)phenyl)-5-(2,4-dihydroxy-5-isopropylphenyl)-N-(2,2,2-trifluoroethyl)-4H-1,2,4-triazole-3-carboxamide, trifluoroacetic acid], the pIC50 on HSP90a protein was more than 7.00. Further, the pEC50 in assay [1], in assay [3] and in assay [2] was 6.00 to 7.00 each time.
As to `CCc1cc(-c2nnc(C(=O)NC(C)C)n2-c2ccc(CN3CCN(CC4CCN(C(=O)CCNc5nc6c(c(N7CCN(C(C)=O)CC7)n5)CCN(c5cc(O)cc7ccccc57)C6)CC4)CC3)cc2)c(O)cc1O` [Compound 55, 4-(4-((4-((1-(3-((4-(4-acetylpiperazin-1-yl)-7-(3-hydroxynaphthalen-1-yl)-5,6,7,8-tetrahydropyrido[3,4-d]pyrimidin-2-yl)amino)propanoyl)piperidin-4-yl)methyl)piperazin-1-yl)methyl)phenyl)-5-(5-ethyl-2,4-dihydroxyphenyl)-N-isopropyl-4H-1,2,4-triazole-3-carboxamide, trifluoroacetic acid], the pIC50 is more than 7.00 on HSP90a protein and less than 6.00 on KRAS(G12C). For the same molecule, the pEC50 in assay [1] and in assay [2] was 6.00 to 7.00 throughout.
With `CCC(=O)N1CCN(c2nc(NCCC(=O)NCc3ccc(CN4CCC(Cc5ccc(-n6c(C(=O)NCC(F)(F)F)nnc6-c6cc(C(C)C)c(O)cc6O)cc5)CC4)cc3)nc3c2CCN(c2cc(O)cc4ccccc24)C3)CC1` [Compound 62, 5-(2,4-dihydroxy-5-isopropylphenyl)-4-(4-((1-(4-((3-((7-(3-hydroxynaphthalen-1-yl)-4-(4-propionylpiperazin-1-yl)-5,6,7,8-tetrahydropyrido[3,4-d]pyrimidin-2-yl)amino)propanamido)methyl)benzyl)piperidin-4-yl)methyl)phenyl)-N-(2,2,2-trifluoroethyl)-4H-1,2,4-triazole-3-carboxamide, trifluoroacetic acid], the pIC50 is 6.00 to 7.00 on HSP90a protein and less than 6.00 at KRAS(G12C). The pEC50 in assay [1] and in assay [2] was 6.00 to 7.00 each time.
`CC(=O)N1CCN(c2nc(NCCC(=O)N3CCC(Cc4ccc(CN(C)Cc5ccc(-n6c(C(=O)NCC(F)(F)F)nnc6-c6cc(C(C)C)c(O)cc6O)cc5)cc4)CC3)nc3c2CCN(c2cc(O)cc4ccccc24)C3)CC1` [Compound 112, 4-(4-(((4-((1-(3-((4-(4-acetylpiperazin-1-yl)-7-(3-hydroxynaphthalen-1-yl)-5,6,7,8-tetrahydropyrido[3,4-d]pyrimidin-2-yl)amino)propanoyl)piperidin-4-yl)methyl)benzyl)(methyl)amino)methyl)phenyl)-5-(2,4-dihydroxy-5-isopropylphenyl)-N-(2,2,2-trifluoroethyl)-4H-1,2,4-triazole-3-carboxamide, trifluoroacetic acid] gave a pIC50 at HSP90a protein of 6.00 to 7.00. The pEC50 in assay [1], in assay [3] and in assay [2] was 6.00 to 7.00 throughout.
The molecule `CCC(=O)N1CCN(c2nc(NCCC(=O)N3CCC(CN4CCN(Cc5ccc(-n6c(C(=O)NC7CC7)nnc6-c6cc(CC)c(O)cc6O)cc5)CC4)CC3)nc3c2CCN(c2cc(O)cc4ccccc24)C3)CC1` [Compound 116, N-cyclopropyl-5-(5-ethyl-2,4-dihydroxyphenyl)-4-(4-((4-((1-(3-((7-(3-hydroxynaphthalen-1-yl)-4-(4-propionylpiperazin-1-yl)-5,6,7,8-tetrahydropyrido[3,4-d]pyrimidin-2-yl)amino)propanoyl)piperidin-4-yl)methyl)piperazin-1-yl)methyl)phenyl)-4H-1,2,4-triazole-3-carboxamide, trifluoroacetic acid] gave a pIC50 at HSP90a protein of more than 7.00. For the same molecule, the pEC50 in assay [1], in assay [3] and in assay [2] was 6.00 to 7.00 each time.
Regarding `CCC(=O)N1CCN(c2nc(NCCC(=O)N3CCC(CN4CCN(Cc5ccc(-n6c(C(=O)NC7(C)CC7)nnc6-c6cc(CC)c(O)cc6O)cc5)CC4)CC3)nc3c2CCN(c2cc(O)cc4ccccc24)C3)CC1` [Compound 120, 5-(5-ethyl-2,4-dihydroxyphenyl)-4-(4-((4-((1-(3-((7-(3-hydroxynaphthalen-1-yl)-4-(4-propionylpiperazin-1-yl)-5,6,7,8-tetrahydropyrido[3,4-d]pyrimidin-2-yl)amino)propanoyl)piperidin-4-yl)methyl)piperazin-1-yl)methyl)phenyl)-N-(1-methylcyclopropyl)-4H-1,2,4-triazole-3-carboxamide, trifluoroacetic acid], at HSP90a protein, the pIC50 was 6.00 to 7.00. For the same molecule, the pEC50 in assay [1] is 6.00 to 7.00; in assay [3] it was 6.00 to 7.00; in assay [2], more than 7.00.
`CCNC(=O)c1nnc(-c2cc(CC)c(O)cc2O)n1-c1ccc(CN2CCN(CC3CCN(C(=O)CCNc4nc5c(c(N6CCN(C(=O)CC)CC6)n4)CCN(c4cc(O)cc6ccccc46)C5)CC3)CC2)cc1` [Compound 121, N-ethyl-5-(5-ethyl-2,4-dihydroxyphenyl)-4-(4-((4-((1-(3-((7-(3-hydroxynaphthalen-1-yl)-4-(4-propionylpiperazin-1-yl)-5,6,7,8-tetrahydropyrido[3,4-d]pyrimidin-2-yl)amino)propanoyl)piperidin-4-yl)methyl)piperazin-1-yl)methyl)phenyl)-4H-1,2,4-triazole-3-carboxamide, trifluoroacetic acid] showed a pIC50 on HSP90a protein of more than 7.00. The pEC50 was 6.00 to 7.00 in assay [1], 6.00 to 7.00 in assay [3] and more than 7.00 in assay [2].
